Where a chain is given by its changes, count along the chain named. Like-named read-outs stand apart in the source and are kept apart here.
Assays:
human FAAH [1] = molecular target: T1, human FAAH (Homo sapiens, UniProt O00519); test: FAAH SPA binding assay (displacement of [3H]-MAEA from FAAH-containing microsomes); settings: for IC50: 3 hours room temperature
T1 construct: His6; made in house; host or cells: CHO cells, stably transfected; microsomal fraction used
T1 sequence (O00519 1-579): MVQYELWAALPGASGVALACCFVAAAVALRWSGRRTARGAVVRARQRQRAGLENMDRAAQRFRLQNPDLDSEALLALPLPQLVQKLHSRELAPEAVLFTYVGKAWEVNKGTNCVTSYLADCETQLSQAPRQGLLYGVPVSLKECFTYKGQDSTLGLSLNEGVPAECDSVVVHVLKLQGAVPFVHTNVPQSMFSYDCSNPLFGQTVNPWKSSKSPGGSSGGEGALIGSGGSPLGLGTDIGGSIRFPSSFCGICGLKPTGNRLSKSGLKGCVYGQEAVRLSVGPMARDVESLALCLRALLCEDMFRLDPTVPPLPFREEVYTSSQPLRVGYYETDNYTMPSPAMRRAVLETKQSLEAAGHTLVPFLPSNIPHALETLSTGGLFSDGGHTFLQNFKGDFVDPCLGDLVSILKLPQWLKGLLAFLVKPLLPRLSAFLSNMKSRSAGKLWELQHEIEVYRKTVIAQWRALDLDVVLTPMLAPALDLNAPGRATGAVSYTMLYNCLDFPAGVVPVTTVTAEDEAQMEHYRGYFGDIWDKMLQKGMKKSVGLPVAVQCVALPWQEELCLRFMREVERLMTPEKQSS
Procedure: FIG. 3. One embodiment of a FAAH SPA assay. […] The radioactivity was counted on a TopCount™ for one minute per sample. Each point shown is the mean±SD of triplicates from at least two independent experiments.
FIG. 7. Inhibition of the binding of [^3H]-MAEA to FAAH-containing microsomes by FAAH inhibitors in SPA. The assay was carried out by incubating 5 μg of FAAH microsomes with 100 nM [^3H]-MAEA and 0.5 mg of WGA beads in 50 mM HEPES, 1 mM EDTA, pH 7.4, 0.1% BSA, with inhibitors in a 200 μL total reaction volume, at room temperature for 3 hours. The final concentration of DMSO in the assay was 0.5%. IC50 values were calculated by fitting the curve to a non-linear regression equation. Each point is the mean±SD of triplicate data from at least two independent experiments.
The SPA assay consisted of 100 nM [^3H]-MAEA (60 Ci/mmol), […] FAAH microsomes and 0.5 mg PVT-WGA beads in buffer (50 mM HEPES, pH 7.4, 1 mM EDTA and 0.1% BSA). The assays were performed in 96 well plates with a final volume of 200 μL. Components were added to the assay plates, which were agitated on a plate shaker for 3-4 hours at room temperature. The assays were then counted on a TopCount NXT (PerkinElmer, Boston, Mass.) for one minute per well. Results presented are the mean±S. E. of triplicate measurements from at least two independent experiments. The IC50 values were calculated using the GraphPad Prism 3.02 program, based on a sigmoidal dose-response equation. The screening window coefficient (Z′-factor) was calculated according to the following equation as previous described (See Zhang, J. H., T. D. Chung, and K. R. Oldenburg, A simple statistical parameter for use in evaluation and validation of high throughput screening assays, J Biomol Screen, 1999, 4: 67-73): Z=1−(3σc++3σc−)/|μc+−μc−| where, σc+ and σc− are standard deviations of positive and negative controls and μc+ and μc− are means of positive and negative controls respectively.
Assays were performed by incubating 0.5 mg of PVT-WGA beads, 100 nM [3H]-MAEA, and 5 μg of FAAH-containing microsomes. Assays were incubated in the wells of 96-well plates.

human FAAH [2] = molecular target: T1, human FAAH; test: [3H]-anandamide (AEA) hydrolysis by FAAH microsomes; type: biochemical
Procedure: 0.5 μg of human FAAH microsomes were incubated with 1 μM [^3H]-AEA substrate and indicated concentrations of MAEA in assay buffer at room temperature for 2 hours. Released [^3H]-ethanolamine was extracted by chloroform/methanol and counted.
Panel (B) Effect of MAEA on the kinetics of AEA hydrolysis by FAAH-containing microsomes. 0.5 μg of the microsomes comprising FAAH were incubated with the indicated [^3H]-AEA concentrations for 30 minutes with or without 10 μM of MAEA. Released [^3H]-ethanolamine was measured in a scintillation counter.
Microsomes (0.5 μg/assay) prepared from CHO cells expressing human FAAH, were incubated with the indicated concentrations of anandamide (ethanolamine 1-[^3H]) for 30 min at 25° C. in 50 mM HEPES, pH 7.4, 1 mM EDTA and 0.1% BSA. The reaction was terminated by the addition of 2 volumes of chloroform/methanol (1:1, v/v). The samples were vortexed and centrifuged at 1000 g for 3 minutes. The aqueous phase, containing [^3H]-ethanolamine, was collected and measured by liquid scintillation counting. Results are presented as the mean±S.E. of triplicate measurements from at least two independent experiments. The observed rate constants (apparent Km) were calculated using GraphPad Prism 3.02, based on a Michaelis-Menten (one site binding hyperbola) equation Y=BmaxX/[Km+X].
The AEA hydrolysis assays were performed according to the protocols described in Example 1. 0.5 μg of FAAH-containing microsomes per assay were incubated with 8 different concentrations (in a range from 1 μM to 10 μM) of compound in the presence of 1 μM […] in 50 mM HEPES, pH 7.5, 1 mM EDTA, 0.1% BSA at room temperature for 2 hours. ^3H-ethanolamine released from AEA hydrolysis was measured by liquid scintillation counting. Results were analyzed using a sigmoidal dose-response equation by GraphPad Prism 3.02. Numerical results are the mean of triplicate measurements from at least two independent experiments.

[3] = SPA binding of [3H]-MAEA to microsomes from CHO cells containing only vector; design: species or system Chinese hamster; settings: 5 μg microsomes from cells containing only vector
Procedure: (§1) FIG. 4. […] The relative activity of FAAH-containing microsomes or those prepared from cells expressing FAAH-S241A or vector control was measured by increasing the microsomal protein concentration ranging from 0-10 μg/assay. 100 nM of [^3H]-MAEA and 0.5 mg of WGA SPA beads were incubated with indicated concentrations of microsomes at 25° C. for 3 hours. Radioactivity was measured in a TopCount™. The SPA signal (CPM) was plotted against amount of microsomal protein in the assay. Each point is the mean±SD of triplicate data from at least two independent experiments.
(§2) Cells were collected by centrifugation at 2000 g for 10 minutes at 4° C. in a Sorvall high-speed centrifuge. The cell pellet was then washed 3 times with PBS and resuspended in buffer containing 50 mM HEPES, pH 7.4, 1 mM EDTA, 1 μM pepstatin, 100 μM leupeptin, 0.1 mg/mL aprotinin. The cells were sonicated 5 times for 10 seconds at 15-second intervals and the cell lysate was further centrifuged at 12000 g for 20 minutes at 4° C. The supernatant was centrifuged at 100,000 g for 30 minutes in a SW28 rotor in a Beckman Optima LE-80K centrifuge. The pellet obtained was the microsomal fraction, which was resuspended in ice-cold buffer. Protein concentration was measured by the BCA method (Pierce) and the microsomal suspension adjusted to 1 mg/mL and stored in aliquots at −80° C. until use. […]

inactive FAAH-S241A = molecular target: T2, inactive FAAH-S241A (Homo sapiens, UniProt O00519, S241A); test: SPA binding of [3H]-MAEA to microsomes with inactive FAAH-S241A mutant; settings: 5 μg microsomes containing inactive FAAH-S241A
T2 construct: His6; made in house; host or cells: CHO cells, stably transfected; microsomal fraction used
T2 sequence (O00519 1-579 S241A): T1 sequence (O00519 1-579) with S241A
Procedure: as §1, §2

FAAH microsomes = molecular target: T3, FAAH microsomes (Homo sapiens, UniProt O00519); test: Hydrolysis of [3H]-MAEA by FAAH microsomes; type: biochemical; settings: 5 μg FAAH microsomes over 5 hours
T3 construct: His6; made in house; host or cells: CHO cells, stably transfected; microsomal fraction used
T3 sequence (O00519 1-579): T1 sequence (O00519 1-579)
Source text: R(+)-methanandamide (R-(+)-arachidonyl-1-′-hydroxy-2′-propylamide, MAEA) is an anandamide analog with a methyl group at the 1′-position of the ethanolamido head group. […] The effects of MAEA on FAAH-catalyzed anandamide hydrolysis was also examined using FAAH-containing microsomes.

[4] = 5 μg FAAH microsomes, 100 nM [3H]-MAEA, 0.5 mg WGA beads
[5] = 0.5 μg FAAH-containing microsomes, 1 μM radiolabelled substrate, room temperature 2 hours, read-out: AEA hydrolysis (IC50)

## Arachidonoyl trifluoromethyl ketone [ATFK]
Human FAAH [1]; [4]
  IC50: 87 nM
Human FAAH [2]; [5]
  IC50: 10.1 nM

## CCCCCCCCCCCC(=O)c1nc2ncccc2o1 [CAY-10400]
Human FAAH [1]; [4]
  IC50: 3.1 nM
Human FAAH [2]; [5]
  IC50: 2.3 nM

## CCCCC/C=C\C/C=C\C/C=C\C/C=C\CCCC(=O)NCCO [AEA, arachidonyl ethanolamide]
Human FAAH [2]; FAAH-containing microsomes, without MAEA, read-out: apparent Km for AEA (no inhibitor)
  Km: 9.1 µM

## NC(=O)c1cccc(-c2cccc(OC(=O)NC3CCCCC3)c2)c1 [URB-597]
Human FAAH [1]; URB-597 1 μM, 5 μg FAAH microsomes, 100 nM [3H]-MAEA, 160 cpm without inhibitor
  SPA counts in the presence of inhibitor: 1932 cpm
Human FAAH [1]; same concentration of URB-597 (1 μM), no microsomes
  effect on the interaction of [3H]-MAEA and the WGA beads: no effect

## CCCCC/C=C\C/C=C\C/C=C\C/C=C\CCCC(=O)N[C@H](C)CO [MAEA, R-(+)-arachidonyl-1-′-hydroxy-2′-propylamide]
Human FAAH [1]; 2 μg FAAH microsomes, 0.5 mg PVT-WGA beads, estimated, read-out: Kd of specific binding to FAAH microsomes
  Kd: 25000 nM
Human FAAH [1]; 5 μg microsomes containing FAAH
  specific binding of [3H]-MAEA to microsomes: 90%
Human FAAH [1]; 5 μg microsomes, 100 nM [3H]-MAEA, 0.5 mg WGA beads
  total [3H]-MAEA bound to FAAH microsomes: ~92%
[3]
  specific binding of [3H]-MAEA to microsomes: 6.1%
Human FAAH [2]; 0.5 μg human FAAH microsomes, 1 μM [3H]-AEA, 2 hours, read-out: IC50 of inhibition of FAAH-catalyzed anandamide hydrolysis
  IC50: 7400 nM
Human FAAH [2]; 10 μM MAEA
  mode of inhibition (Lineweaver-Burk plot): competitive FAAH inhibitor
Human FAAH [2]; MAEA at 10 μM, 30 minutes
  Vmax of AEA hydrolysis in the presence of the compound: 25.82 nmol/min/mg protein
Human FAAH [2]; MAEA at 10 μM, 30 minutes, read-out: apparent Km for AEA in the presence of the compound
  Km: 62.3 µM
Inactive FAAH-S241A
  specific binding of [3H]-MAEA to microsomes: 6.5%
FAAH microsomes
  [3H]-MAEA degraded: less than 1.5%
